Data: patent publication US10837968B2, “Photoactivatable voltage sensitive dyes” (THE REGENTS OF THE UNIVERSITY OF CALIFORNIA, priority 2014, dated 2020)
Values joined by “and” are separate entries in the source; they are usually repeats but may differ in a detail not shown here. Identical values can stand only once. “Also recorded” adds a separate entry of the source.

Key:
[1] = test system: human embryonic kidney cells (HEK 293); experiment: Cellular fluorescence of SPOT-stained HEK cells pre- and post-UV photoactivation; format: cell-based; conditions: HEK cells loaded with 200 nM SPOT; 390 nm light for 30 seconds; n=3
Experimental: (§1) FIGS. 1A-1E. Illumination of SPOT dramatically increases fluorescence. Spectroscopic characterization of SPOT in PBS, pH 7. a) Absorbance profile of SPOT before (grey dotted trace) and after (green trace) illumination at 365 nm. The UV-vis spectrum of photoactivated SPOT is identical to a known standard of VF2.1.C1 (black trace). b) Emission spectrum of SPOT before (grey dotted trace) and after illumination (green trace) at 365 nm. c) HEK cells loaded with 200 nM SPOT prior to illumination. d) Cells from c) after illumination with 390 nm light for 30 seconds. e) Quantification of cellular fluorescence from cells stained with SPOT pre- and post-UV photoactivation. Illumination as in panel d) gives a 12-fold increase in fluorescence intensity (n=3).
We next turned our attention to assessing the properties of SPOT in living cells. […] Illumination with 390 nm (30 s) light results in an immediate increase in cell membrane-associated fluorescence characteristic of VoltageFluor staining (FIG. 1D). […] Membrane-associated fluorescence depends on prior UV illumination, as examination of areas of the same sample not exposed to light show very little cellular fluorescence. […] Following illumination, the cells stained with SPOT become bright and voltage-sensitive. […]

[2] = Spectroscopic characterization of SPOT in PBS, pH 7, before and after UV illumination; format: physicochemical
Experimental: as §1
FIG. 2. Characterization of SPOT photoproducts.
SPOT is readily available in one step from previously reported VoltageFluor compounds (Miller, et al., Natl Acad Sci USA, 2012, 109:2114). Alkylation of VF2.1.C1 with 2-nitro-4,5-dimethoxybenzylbromide in DMF provides SPOT as an analytically pure sample after purification via HPLC. Larger quantities are available through an alternate route in which the sulfonefluorescein head-group is first alkylated and then coupled to the phenylenevinylene molecular wire to give SPOT. We examined the photophysical behavior and characteristics of SPOT under simulated physiological conditions (PBS, pH 7). […] Emission from SPOT is minimal (FIG. 1B, grey trace), as reflected by its low fluorescence quantum yield. UV illumination of SPOT promptly delivers VF, as measured by complete recovery of absorbance profiles characteristic of VF2.1.C1 (FIG. 1A, green and black traces) and a 25-fold increase in fluorescence emission (FIG. 1B green trace).

absorbance maximum (λmax / strong absorbance) ([2]; PBS, pH 7, before illumination): 400 nm
fluorescence quantum yield ([2]; PBS, pH 7, before illumination): low
increase in fluorescence emission after UV illumination ([2]; PBS, pH 7, illumination at 365 nm): 25 fold
Compound: COc1cc(COc2cc3oc4cc(=O)c(Cl)cc-4c(-c4ccc(/C=C/c5ccc(/C=C/c6ccc(N(C)C)cc6)cc5)cc4S(=O)(=O)O)c3cc2Cl)c([N+](=O)[O-])cc1OC [SPOT, 2-(2,7-dichloro-6-((4,5-dimethoxy-2-nitrobenzyl)oxy)-3-oxo-3H-xanthen-9-yl)-5-((E)-4-((E)-4-(dimethylamino)styryl)styryl)benzenesulfonic acid]
increase in mean cellular fluorescence intensity following irradiation [1]: 12±1.2 fold and 12 fold
photoproduct of irradiation (HPLC and mass spectrometry) ([2]; phosphate buffered saline, pH 7.0, 365 nm light): clean conversion of SPOT into VF2.1.C1; also recorded: cleanly gives VF2.1.C1
